Measured values published in US20150362491A1, “METHODS AND ASSAYS RELATING TO RNF216” (THE GENERAL HOSPITAL CORPORATION, priority 2013, published 2015).

What was measured:
[1] = system: rnf216 and rnf216+otud4 (DMO) morphants; assay: in vivo zebrafish assay of neuronal survival and degeneration, SFN co-injected into morphants; conditions: for morphants with optic tectum defects: 3 dpf
Experimental: Zebrafish embryo injections. Zebrafish were maintained and mated according to standard procedures.^49 Wild-type zebrafish embryos were injected at the 1-4 cell stage with 1 nl diluted MO and 0.5% phenol red. […] For the epistatic interaction experiments, a cocktail containing 6 ng each of rnf216- and otud4-targeting MO was used.
(§1) Zebrafish embryo phenotyping. Injected embryos were scored at 3 days post fertilization for microphthalmia by measuring the area of the eye cup. For immunofluorescence studies, embryos were fixed in Dent's fixative (80% methanol, 20% dimethylsulfoxide) overnight at 4° C. After rehydration with decreasing series of methanol in PBS, the embryos were washed with PBS, permeabilized with 10 μg/ml proteinase K, and postfixed with 4% PFA. Embryos were then washed twice with IF buffer (0.1% Tween-20, 1% BSA in 1×PBS) for 10 min at room temperature. After incubation in blocking solution (10% FBS, 1% BSA in 1×PBS) for 1 h at room temperature, embryos were incubated with anti-α acetylated tubulin (1:1000; T7451, Sigma-Aldrich), overnight at 4° C. After two washes in IF buffer for 10 min, embryos were incubated with Alexa Fluor goat anti-mouse IgG (1:1000; A21207, A11001, Invitrogen) for 1 h at room temperature. Image acquisition and analysis was performed using Nikon NIS-Elements Advanced Research software. For each test, 50-100 embryos were injected and scored by two investigators who were blind to the injection cocktail. All experiments were performed 2-3 times and statistical significance was calculated using Student's t-test.
This hypothesis will be tested in Rnf216^−/− and Otud4^−/− mice.

[2] = system: pituitary response to GnRH; assay: reproductive endocrine phenotyping with exogenous GnRH; assay type: in vivo, human
Experimental: Reproductive Endocrine Phenotyping. Subjects 2, 6, and 8 underwent blood sampling every 10-15 minutes for 3.25-12 h to examine the frequency, amplitude, and morphology of endogenous GnRH-induced luteinizing hormone (LH) pulse patterns. Pulses of LH secretion were identified using a modified version of the method of Santen and Bardin.^45-46 Subjects 1, 2, 6, and 8 received exogenous, pulsatile GnRH with monitoring of gonadotropin responses as described previously.^47-48 Hormone assays were performed as described in ref 48; the Second International Reference Preparation was used as the standard for LH and FSH.

[3] = system: pituitary response to GnRH; conditions: Subject 3, cited from earlier work
[4] = system: zebrafish embryos; assay: zebrafish embryo morpholino knock-down and human mRNA rescue phenotyping; assay type: in vivo; conditions: for organization of the cerebellum (axonal tracts) / size of the optic tectum: 3 d.p.f., anti-α acetylated tubulin staining
Experimental: Zebrafish Investigation. All experiments were carried out with the approval of the Institutional Animal Care and Use Committee. Morpholino oligos (MO) for silencing of zebrafish rnf216 and otud4 were injected either alone or with wild-type (WT) or mutant human mRNA for RNF216, OTUD4, or both.
Morpholino oligonucleotide design. Morpholino oligos were obtained from Gene Tools, LLC (Philomath, Oreg., USA). Reciprocal BLAST against the zebrafish genome identified a sole zebrafish ortholog of […] (ENSDARG00000087893, 59% similarity, 46% identity). The antisense MO used for the silencing of zebrafish rnf216 targeted the intron 5′ donor splice site of the gene: […] (SEQ ID NO: 7).
(§2) Similar to rnf216, a sole ortholog of the human transcript for OTUD4 was identified in zebrafish (73% similarity, 61% identity). […] The MO for otud4 targeted the donor splice site of intron 2: […] (SEQ ID NO: 8).
Zebrafish embryo injections. Zebrafish were maintained and mated according to standard procedures.^49 Wild-type zebrafish embryos were injected at the 1-4 cell stage with 1 nl diluted MO and 0.5% phenol red. A dose of 6 ng of rnf216 or otud4-targeting MO was used as it gave the best rate of silencing and the minimum rate of mortality among the tested working dilutions (4-10 ng). For the epistatic interaction experiments, a cocktail containing 6 ng each of rnf216- and otud4-targeting MO was used.
For RNA rescue experiments, human wild-type or mutant RNF216 (NM_207116.2) and OTUD4 (NM_001102653.1) were cloned into the pCS2+ expression vector and transcribed in vitro using the SP6 Message Machine Kit (Ambion) to produce capped mRNA, and 200 pg of mRNA was injected for the rescue experiments.
as §1

[5] = system: otud4 endogenous transcript; assay: efficiency of the morpholinos (splicing of endogenous transcript, gel); assay type: in vivo, zebrafish; conditions: otud4 MO 4-10 ng; intron 5 retained
Experimental: FIG. 8B depicts a gel of the results of injection of the otud4 MO (4-10 ng), which reduces normal splicing of the endogenous transcript by 90% and favors aberrant splicing resulting in a transcript where intron 5 (73 bp in size) is retained.
as §2

[6] = treatment of rnf216 and DMO morphants with SFN

C[S@@+]([O-])CCCCN=C=S [SFN, 1-isothio-cyanato-4(R)-methylsulfinylbutane]
morphants with optic tectum defects ([1]; DMO (rnf216+otud4) morphants co-injected with SFN, from 41% without SFN, p<0.001): 15% | cerebellar disorganization phenotype ([1]; co-injection of SFN with DMO): failed to ameliorate | cerebellar disorganization phenotype ([1]; co-injection of SFN with rnf216 MO): failed to ameliorate | morphants with optic tectum defects ([1]; rnf216 morphants co-injected with SFN, from 32% without SFN, p<0.001): 15% | cerebellar degeneration phenotype (FIG. 10E) [1, 6]: not the cerebellar degeneration phenotype | optic tectum phenotype (FIG. 10D) [1, 6]: rescues the optic tectum phenotype

gonadotropin-releasing hormone (QHWSYGLRPG; Gonadoliberin-1; UniProt P01148 24-33, looked up) [GnRH]
LH response to exogenous GnRH at a standard dose ([2]; Subject 6): immediate robust increase in LH | testicular volumes ([2]; Subject 8, exogenous pulsatile GnRH 25 to 600 ng/kg q2 h over 2 y, from 2 mL): 8 mL | gonadotropin responses to pulsatile exogenous GnRH over 7 days ([2]; Subjects 1 and 2, bedridden, late in the course of disease): failed to exhibit gonadotropin responses | LH after GnRH ([3]; 90 min after GnRH, baseline 0.06 IU/L): 5.8 IU/L | FSH after GnRH ([3]; 120 min, baseline 0.14 IU/L): 2.0 IU/L

human RNF216 mRNA: capped wild-type human RNF216 (NM—207116.2) mRNA transcribed in vitro, 200 pg injected
rescue of the phenotypes induced by double MO injection ([4]; co-injection of mRNA with double MO): rescued all phenotypes | rescue of the tectal phenotype ([4]; co-injection of mRNA with rnf216 MO): fully rescued

otud4 MO: splice-blocking morpholino against zebrafish otud4: TACCCGAAGGAATTTGCGCACCATT (SEQ ID NO: 8) (all phosphorodiamidate morpholino (PMO))
organization of the cerebellum (axonal tracts) [4]: cerebellar defects | size of the optic tectum [4]: reduction in size of the optic tectum | reduction of normal splicing of the endogenous transcript [5]: 90%

rnf216 MO: antisense morpholino silencing zebrafish rnf216, donor splice site: CAGAAAATAGTTTGTGCTTACACAT (SEQ ID NO: 7) (all phosphorodiamidate morpholino (PMO))
morphants with optic tectum defects ([1]; morphants without SFN): 32% | organization of the cerebellum (axonal tracts) [4]: disorganization of axonal tracts in the cerebellum | size of the optic tectum [4]: reduction in size of the optic tectum
